From patent publication US8829014B2, “Thiazole and thiophene analogues, and their use in treating autoimmune diseases and cancers” (Board of Supervisors of Louisiana State University and …, priority 2006, dated 2014) come the findings set out here.

Marks after values point to notes of the source that are not given here.

Common to all, as to assay type: cell-based
One data set has as its system NF-κB. The data set can be described thus: TNF-α-induced NF-κB-dependent luciferase expression in HEK cells. More on the design: NF-κB % inhibition: concentration or dose not given beside the values.
Data set [1] is described as follows: MTT viability in skin cell line pair, tumorigenic and non-tumorigenic. As to conditions: human.
In a further data set the test system is AP-1. Kind of data set: PMA-induced AP-1 luciferase expression in HEK cells.
For data set [2], the system named is vascular smooth muscle cells (VSMC). Kind of data set: LDH release cytotoxicity in VSMC. The settings on record: rat, 48 h, 10 μM. How it is done: (§1) Additional compounds have also been tested for their ability to inhibit both TNF-α-induced NF-κB—expression and PMA-induced AP-1 expression. In both tests, the compound was added for 1 h, then the appropriate inducer was added, and luciferase activity was monitored 24 h later. Values were then normalized to the vehicle control, DMSO. Following the initial luciferase screens, studies were conducted to assess the cytotoxicity of the compounds in normal cells such as VSMC, HUVEC, or HPT cells. Human umbilical vein endothelial cells (HUVEC) represent the normal endothelium, vascular smooth muscle cells (VSMC) were represented by cells from the adult rat aorta, and human proximal tubule (HPT) cells represent the normal proximal tubule in vivo. These cells were grown to near confluency in multi-well plates, and were then treated for 48 h with either vehicle (0.1% DMSO) or 10 μM of each drug candidate. Following treatment, the media from the VSMC and HUVEC incubations were removed, and the amount of lactate dehydrogenase (LDH) released into the medium was determined with a commercial kit. LDH is normally confined to the cytosol, and its release represents “leakiness” of the plasma membrane. LDH activity was expressed as % increase over vehicle-treated cells. In another assay of viability, the treated VSMC and HUVEC were removed by trypsinization and treated with trypan blue, a dye that is taken up only by dead cells. The number of both live and dead cells was counted using an automated cell viability analyzer. The % decrease in numbers of viable cells was determined. Toxicity in the treated HPT cells was determined by the ethidium homodimer (EthHD) uptake assay. EthHD is a fluorescent dye that is excluded from live cells, but is taken up by cells that have lost permeability barriers. Inside the cell, EthHD produces a strong fluorescent signal, which is proportional to the number of dead cells. Results were expressed as a % increase in cell death over vehicle-treated cells. The lead compounds were also tested in two pairs of cell lines from either the skin or prostate, one tumorigenic and one non-tumorigenic, to test for any differences in toxicity or heightened sensitivity in the tumorigenic lines. The cells were treated for 48 h with vehicle (0.1% DMSO) or 10 μM of each drug candidate. Following treatment, the viability of the cells was determined by the MTT assay. In this assay, the MTT dye is converted only in viable cells by intracellular enzymes to a colorimetric product that is quantitated by a microplate reader.
(§2) For the results in Table 13, cells were grown to near confluency in multi-well plates, then treated for 48 h with either vehicle (0.1% DMSO) or 10 μM of each drug candidate. Following treatment, the media from the VSMC and HUVEC incubations were removed, and the amount of lactate dehydrogenase (LDH) released into the medium was determined with a commercial kit and expressed as a % increase over vehicle-treated cells. HPT toxicity was determined by the ethidium homodimer (EthHD) uptake assay. Inside the cell, EthHD produces a strong fluorescent signal, which is proportional to the amount of cell death, expressed as a % increase in cell death over vehicle-treated cells. The lead compounds were also tested in two pairs of cell lines from the skin or prostate, one tumorigenic and one non-tumorigenic, to test for differing toxicity or heightened sensitivity in the tumorigenic lines. The cells were treated for 48 h with vehicle (0.1% DMSO) or 10 μM of each drug candidate, and the viability of the cells was determined by the MTT assay, expressed as a % decrease in viability compared to vehicle-treated cells. The in vivo inflammation model measured the % inhibition of rat paw edema induced by carageenan injection.

For data set [3], the system named is human proximal tubule (HPT) cells. Kind of data set: Ethidium homodimer (EthHD) uptake toxicity assay in HPT cells. As to conditions: 10 μM, 48 h, relative to vehicle. How it is done:
as §1, §2

Data set [4] deals with vascular smooth muscle cells (VSMC). The data set can be described thus: Trypan blue viability count in VSMC. The settings on record: rat, 48 h, 10 μM. How it is done:
as §1

The test system of a further data set is eIF4E. The data set can be described thus: eIF4E inhibitor screen: luciferase under FGF 5′UTR in FaDu cells (highly cap-dependent translation). As to conditions: for inhibition of highly cap-dependent translation (summary statement): summary in the disclosure. From the text: Since highly cap-dependent translation is associated with synthesis of proteins involved in cancer, a compound that inhibits this pathway may be used as an anti-cancer agent. The assay was developed by cloning the highly structured 5′ UTR of FGF, which requires high levels of eIF4E before protein synthesis can initiate, into the proper orientation of the reporter gene luciferase, and then stably transfecting the modified luciferase gene into the cell line FaDu that is known to have high levels of eIF4E. The activity of luciferase is then monitored in the presence and absence of the tested compound.
Generation of Stable Cell Lines: The pMS110 plasmid (pGL3-control plasmid from Promega which contains a neo selectable marker) was used to generate pMS110-5′UTR by cloning the 5′ UTR of FGF just upstream of the luciferase AUG start codon. FaDu cells, a head and neck cancer cell line, were transfected using Lipofectamine2000 (Invitrogen). Twenty-four hours after transfection G418 was added at 500 μg/ml. Cells were maintained in G418 for 14 days, and then individual colonies were transferred to a 96-well plate for propagation. Individual clones were analyzed for luciferase expression by plating 10^4 cells per well in a 96-well plate for 24 hours before lysing the cells and analyzing for luciferase activity in a Victor III (Perkin Elmer) or Lucy2 (Rosys Anthos). FaDu9000 and FaDuUTR were the clones that expressed the highest level of active luciferase following transfection of pMS110 and pMS110-5′UTR, respectively.
Analysis of Rapamycin Responsiveness: Cells of FaDu9000 and FaDuUTR were plated at 1×10^4 cells/well in a 96-well dish. Twenty-four hours after plating, 0.1% DMSO (vehicle control) or 10 nM rapamycin were added to each well, and the cells were maintained for an additional 24 or 48 hours. The cells were then lysed and luciferase activity was determined using BriteGlo (Promega) as per manufacturer's instruction and recorded using the Victor III. Following subtraction of background activity, the mean value of quadruplicate samples for a given experiment was determined, and the treated cells were normalized to the control. At least four separate experiments were conducted, and the mean and standard error were calculated. To determine if rapamycin affected cell viability, an MTS assay (Cell Proliferation One Solution, Promega) was carried out on each population at 48 hours in two separate experiments.
The FaDu cell line stably transfected with FGF 5′UTR was used to screen thirty-nine representative compounds, each at a concentration of 1.0 μM. Additional cells were treated with vehicle, 0.3% DMSO. Cells were plated for twenty-four hours in a 96-well plate. Each compound was then added to triplicate wells, and the cells were incubated for forty-eight hours before measuring luciferase activity as above. The mean luciferase activity was measured using Promega's Brite-Glo kit, and the mean for each sample was normalized to DMSO. The experiment was then repeated, and the average and standard deviation of the two experiments were determined (FIG. 8).

`CNc1nc(C)c(-c2nc3ccccc3c(=O)n2-c2ccc(Cl)cc2)s1` [Example 244, 2-(4-Methyl-2-methylamino-thiazol-5-yl)-3-(4-chloro-phenyl)-3H-quinazolin-4-one] came in with an NF-κB % inhibition with NF-κB (TNF-α-induced, compound added 1 h before inducer, luciferase 24 h later, normalized to DMSO vehicle) of 0%. Also, the cytotoxicity at 48 h, 10 μM in data set [1] (Viability (MTT) % Decrease HaCaT) is 25%; in data set [1] (Viability (MTT) % Decrease SRB12-p9), 28%. The AP-1 % inhibition with AP-1 (PMA-induced, compound added 1 h before inducer, luciferase 24 h later, normalized to DMSO vehicle) is 87** %. For the same compound, the “LDH release % Increase VSMC” value in data set [2] was 68# %. Also, the “Cell Death (EthHD) % Increase HPT” value in data set [3] was 180# %. In addition, in data set [4], the “Viable Cells % Decrease VSMC” value is 70# %.

For `COc1ccc(-n2c(-c3sc(Nc4ccc(Cl)cc4)nc3-c3ccccc3)nc3ccccc3c2=O)cc1` [Example 225, 2-[2-(4-Chloro-phenylamino)-4-phenyl-thiazol-5-yl]-3-(4-methoxyphenyl)-3H-quinazolin-4-one], the “inhibition of highly cap-dependent translation (summary statement)” value with eIF4E is given as “capable of inhibiting”.

Turning to “Bis-[2-(4-Chloro-phenylamino)-4-benzayl-thiazole-5-yl]-methanone [Example 134]”, in the data set on NF-κB (20 ng/ml TNF-α, 24 hr (FIG. 15), read-out: IC50, TNF-α induced NF-κB gene expression), the IC50 is less than 100 nM. In addition, the “NFkB inhibition @ 1 uM” value in the data set with NF-κB (1 uM, luciferase in HEK/NF-κB cells, as described in Example 398) came out at 67.87. Further, the “AP-1 inhibition @ 1 uM” value with AP-1 (1 uM, luciferase in HEK/AP-1 cells, as described in Example 398) turned out to be 72.77. Also, the “luciferase expression under the control of the FGF 5′UTR” value in the data set on eIF4E (1.0 μM, 48 h, FaDu UTR cells, normalized to DMSO (FIG. 8)) is reported as “inhibited luciferase expression”. The “inhibition of luciferase activity (FGF 5′UTR)” value in the data set with eIF4E (highest concentration tested) is greater than 60%. Besides, in the data set with eIF4E, the “inhibition of highly cap-dependent translation (summary statement)” value is “capable of inhibiting”.
